Measurements: patent US5294603A, “Pharmaceutical compositions containing didemnins” (The Board of Trustees of The University of Illinois, priority 1992, dated 1994)
≈ marks a conversion by molar mass, not a printed value. Where two headings read alike, the source gives them in different places. Numbered stars: 1 amine (or outer) side, 2 acyl side, 3 side chain; on linkers, the order of the positions; unused ones are H or OH. Bridge positions count the residues as written; N and C are the ends. Square brackets hold non-standard residues; d marks the D form. Peptide text beside a SMILES is read from it. * marks the point of attachment. X1 = CC[C@H](C)[C@@H](N[*:1])[C@@H](O)CC(=O)O[C@H](C(=O)[C@H](C)C(=O)[*:2])C(C)C; NMeY = CN[C@@H](Cc1ccc(O)cc1)C(=O)O; dNMeL = CN[C@H](CC(C)C)C(=O)O; Isobutyryl = CC(C)C(=O)*; Propionyl = CCC(=O)*

Key:
[1] = tested on: BHK = Baby hamster kidney cells
Visna virus (VIV) = assay type: cell-based
[2] = tested on: L1210 murine leukemia cells; details: Table 9
[3] = tested on: Nb2 cells, rat T-cell node lymphoma; assay: Competitive binding with [3H]didemnin B to Nb2 cells; details: 3 h at 37° C.
Method: The immunosuppressive assay was performed by measuring competitive binding of tested compounds with [^3 H]didemnin B to Nb2 cells, rat T-cell node lymphoma. See, Russell, D. H., et al., J. Immunology, 1987, 138, 276-284.
^a Competing didemnins incubated with approximately 25 ng of [^3

[4] = tested on: DNA synthesis in Nb2 node lymphoma cells; assay: Inhibition of ongoing DNA synthesis in prolactin-stimulated Nb2 cells; assay type: cell-based, rat; details: Nb2 cells stimulated with prolactin for 24 h
Method: Also inhibitions of protein and DNA synthesis of several compounds were measured using Nb2 node lymphoma cells which were stimulated by a treatment of cells with prolactin. (ibid.)
^a Nb2 cells were stimulated with prolactin for 24 h, then exposed to
^b 50% Inhibitory concentration, calculated with linear regression

L1210 [5] = tested on: L1210
L1210 [6] = assay: L1210 cytotoxicity, inhibition at fixed doses (Table 10); assay type: cell-based, murine; details: tested 4/18/1991

Structure (SMILES)	BHK [1]	VIV Protection (Visna virus (VIV))	Cytotoxicity L1210 IC50 [2] [ng/mL]	CV-1 (CV-1 monkey kidney cells)	Inhibition of [3H]didemnin B binding (%) ([3]; 0.001 μg/mL)	Inhibition of [3H]didemnin B binding (%) ([3]; 0.01 μg/mL)	Inhibition of [3H]didemnin B binding (%) ([3]; 0.1 μg/mL)	Inhibition of [3H]didemnin B binding (%) ([3]; 1 μg/mL)	IC50 DNA [4]	IC50 (L1210 cells) [ng/mL]	Cytotoxicity percent L1210 inhibition (L1210 [5]; dose 5 ng/mL) [%]	Cytotoxicity percent L1210 inhibition (L1210 [5]; dose 12.5 ng/mL) [%]	Cytotoxicity percent L1210 inhibition (L1210 [5]; dose 25 ng/mL) [%]	Inhibition (%) (L1210 [6]; dose 25 ng/mL)	Inhibition (%) (L1210 [6]; dose 250 ng/mL)
COc1ccc(C[C@H]2C(=O)O[C@H](C)[C@H](NC(=O)C(CC(C)C)N(C)C(=O)[C@@H]3CCCN3C(=O)[C@H](C)O)C(=O)N[C@H](C(C)C)[C@@H](O)CC(=O)O[C@@H](C(C)C)C(=O)[C@H](C)C(=O)N[C@@H](CC(C)C)C(=O)N3CCC[C@H]3C(=O)N2C)cc1 (stereo partly shown) [Nordidemnin B (22), Nordidemnin B]	0, PT	-25	1												
CC[C@H](C)[C@H]1NC(=O)[C@@H](NC(=O)[C@@H](CC(C)C)NC)[C@@H](C)OC(=O)[C@H](Cc2ccc(OC)cc2)N(C)C(=O)[C@@H]2CCCN2C(=O)[C@H](CC(C)C)NC(=O)[C@@H](C)[C@@H](O)[C@H](C(C)C)OC(=O)C[C@@H]1OC(C)=O [O-Acetyl-[H2-(2S,3R,4S)Hip^2]didemnin A]			1000	0	0	0	2	19							
CC[C@H](C)[C@H]1NC(=O)[C@@H](NC(=O)[C@@H](CC(C)C)NC)[C@@H](C)OC(=O)[C@H](Cc2ccc(OC)cc2)N(C)C(=O)[C@@H]2CCCN2C(=O)[C@H](CC(C)C)NC(=O)[C@@H](C)C(=O)[C@H](C(C)C)OC(=O)C[C@@H]1OC(C)=O [O-Acetyldidemnin A (114), O-Acetyldidemnin A]	0, PT		300		1	4	15	10	270,000 ng/mL						
CC[C@H](C)[C@H]1NC(=O)[C@@H](NC(=O)[C@@H](CC(C)C)N(C)C(=O)[C@@H]2CCCN2C(=O)C(C)O)[C@@H](C)OC(=O)[C@H](Cc2ccc(OC)cc2)N(C)C(=O)[C@@H]2CCCN2C(=O)[C@H](CC(C)C)NC(=O)[C@@H](C)C(=O)[C@H](C(C)C)OC(=O)C[C@@H]1O (stereo partly shown) [Didemnin B (17), Didemnin B, reference compound]			0.5		3	7	59	77	90 ng/mL (≈ 80.9 nM)	0.5 (≈ 0.449 nM)	93	95	95	99	99
CCC(=O)N1CCC[C@H]1C(=O)N(C)[C@H](CC(C)C)C(=O)N[C@@H]1C(=O)N[C@H]([C@@H](C)CC)[C@@H](O)CC(=O)O[C@@H](C(C)C)C(=O)[C@H](C)C(=O)N[C@@H](CC(C)C)C(=O)N2CCC[C@H]2C(=O)N(C)[C@@H](Cc2ccc(OC)cc2)C(=O)O[C@@H]1C [[Propionyl^9] Didemnin B (104), [Propionyl^9]didemnin B] (Propionyl-P[dNMeL]T[X1]LP[NMeY](Me); ester 3-C)	0, PT	-113	0.2												
CC[C@H](C)[C@H]1NC(=O)[C@@H](NC(=O)[C@@H](CC(C)C)N(C)C(=O)[C@H]2CCCN2C(=O)C(C)C)[C@@H](C)OC(=O)[C@H](Cc2ccc(OC)cc2)N(C)C(=O)[C@@H]2CCCN2C(=O)[C@H](CC(C)C)NC(=O)[C@@H](C)C(=O)[C@H](C(C)C)OC(=O)C[C@@H]1O [[Isobutyryl^9 -D-Pro^8]didemnin B] (Isobutyryl-[dP][dNMeL]T[X1]LP[NMeY](Me); ester 3-C)	0, PT		10		0	0	25	69							
CC[C@H](C)[C@H]1NC(=O)[C@@H](NC(=O)[C@@H](CC(C)C)N(C)C(=O)[C@@H]2CCCN2)[C@@H](C)OC(=O)[C@H](Cc2ccc(OC)cc2)N(C)C(=O)[C@@H]2CCCN2C(=O)[C@H](CC(C)C)NC(=O)[C@@H](C)C(=O)[C@H](C(C)C)OC(=O)C[C@@H]1O [N-(L-Pro)Didemnin A (100), N-(L-Prolyl) didemnin A] (H-P[dNMeL]T[X1]LP[NMeY](Me); ester 3-C)	0, PT	< 0	4												
